In patent US20220009920A1 (GB005, Inc., priority 2020, published 2022):

Key:
Test in all cases: Large panel kinase profiling
Assay type in all cases: biochemical
Settings in all cases: 1 μM test article, 1 mM ATP
MYLK4 = target: T1, MYLK4 (Homo sapiens, UniProt Q86YV6)
T1 construct: AssayQuant Technologies, Inc. (assay service)
T1 sequence (Q86YV6 1-388): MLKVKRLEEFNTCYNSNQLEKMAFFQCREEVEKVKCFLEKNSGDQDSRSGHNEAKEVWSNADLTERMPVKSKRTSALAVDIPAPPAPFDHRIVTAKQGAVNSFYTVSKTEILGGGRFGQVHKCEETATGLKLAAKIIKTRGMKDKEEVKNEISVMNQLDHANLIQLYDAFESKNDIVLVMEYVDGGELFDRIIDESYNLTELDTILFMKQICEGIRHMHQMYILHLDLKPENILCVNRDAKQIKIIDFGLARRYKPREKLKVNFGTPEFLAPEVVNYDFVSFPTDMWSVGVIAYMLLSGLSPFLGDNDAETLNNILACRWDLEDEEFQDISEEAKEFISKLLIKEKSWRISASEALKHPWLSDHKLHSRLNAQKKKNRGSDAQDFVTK
Method in brief: (§1)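 Kinase activity was followed with the PhosphoSens CSox-Sensor platform, testing compound at 1 μM in the presence of 1 mM ATP. Reactions ran at 30° C. and fluorescence (Ex 360 nm/Em 485 nm) was read kinetically every 1 min.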

CAMKK1 = target: T2, CAMKK1 (Homo sapiens, UniProt Q8N5S9)
T2 construct: AssayQuant Technologies, Inc. (ran the panel)
T2 sequence (Q8N5S9 whole entry, species assumed): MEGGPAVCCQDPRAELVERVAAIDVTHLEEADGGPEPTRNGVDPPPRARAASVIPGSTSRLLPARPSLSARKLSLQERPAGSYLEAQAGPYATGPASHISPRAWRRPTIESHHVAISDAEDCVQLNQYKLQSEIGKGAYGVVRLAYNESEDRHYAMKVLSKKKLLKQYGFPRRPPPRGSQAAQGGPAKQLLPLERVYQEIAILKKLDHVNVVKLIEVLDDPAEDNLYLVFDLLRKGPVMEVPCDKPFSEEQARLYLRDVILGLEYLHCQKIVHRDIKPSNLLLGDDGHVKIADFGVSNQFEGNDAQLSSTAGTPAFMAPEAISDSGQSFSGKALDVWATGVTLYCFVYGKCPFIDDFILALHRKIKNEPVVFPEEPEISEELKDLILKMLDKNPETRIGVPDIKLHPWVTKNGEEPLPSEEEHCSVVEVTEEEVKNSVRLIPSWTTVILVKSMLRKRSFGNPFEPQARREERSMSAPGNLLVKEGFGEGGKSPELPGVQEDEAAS
Method in brief: as §1

FLT4 = target: T3, FLT4 (Homo sapiens, UniProt P35916)
T3 construct: AssayQuant Technologies, Inc. (service provider)
T3 sequence (P35916 25-1363, species assumed): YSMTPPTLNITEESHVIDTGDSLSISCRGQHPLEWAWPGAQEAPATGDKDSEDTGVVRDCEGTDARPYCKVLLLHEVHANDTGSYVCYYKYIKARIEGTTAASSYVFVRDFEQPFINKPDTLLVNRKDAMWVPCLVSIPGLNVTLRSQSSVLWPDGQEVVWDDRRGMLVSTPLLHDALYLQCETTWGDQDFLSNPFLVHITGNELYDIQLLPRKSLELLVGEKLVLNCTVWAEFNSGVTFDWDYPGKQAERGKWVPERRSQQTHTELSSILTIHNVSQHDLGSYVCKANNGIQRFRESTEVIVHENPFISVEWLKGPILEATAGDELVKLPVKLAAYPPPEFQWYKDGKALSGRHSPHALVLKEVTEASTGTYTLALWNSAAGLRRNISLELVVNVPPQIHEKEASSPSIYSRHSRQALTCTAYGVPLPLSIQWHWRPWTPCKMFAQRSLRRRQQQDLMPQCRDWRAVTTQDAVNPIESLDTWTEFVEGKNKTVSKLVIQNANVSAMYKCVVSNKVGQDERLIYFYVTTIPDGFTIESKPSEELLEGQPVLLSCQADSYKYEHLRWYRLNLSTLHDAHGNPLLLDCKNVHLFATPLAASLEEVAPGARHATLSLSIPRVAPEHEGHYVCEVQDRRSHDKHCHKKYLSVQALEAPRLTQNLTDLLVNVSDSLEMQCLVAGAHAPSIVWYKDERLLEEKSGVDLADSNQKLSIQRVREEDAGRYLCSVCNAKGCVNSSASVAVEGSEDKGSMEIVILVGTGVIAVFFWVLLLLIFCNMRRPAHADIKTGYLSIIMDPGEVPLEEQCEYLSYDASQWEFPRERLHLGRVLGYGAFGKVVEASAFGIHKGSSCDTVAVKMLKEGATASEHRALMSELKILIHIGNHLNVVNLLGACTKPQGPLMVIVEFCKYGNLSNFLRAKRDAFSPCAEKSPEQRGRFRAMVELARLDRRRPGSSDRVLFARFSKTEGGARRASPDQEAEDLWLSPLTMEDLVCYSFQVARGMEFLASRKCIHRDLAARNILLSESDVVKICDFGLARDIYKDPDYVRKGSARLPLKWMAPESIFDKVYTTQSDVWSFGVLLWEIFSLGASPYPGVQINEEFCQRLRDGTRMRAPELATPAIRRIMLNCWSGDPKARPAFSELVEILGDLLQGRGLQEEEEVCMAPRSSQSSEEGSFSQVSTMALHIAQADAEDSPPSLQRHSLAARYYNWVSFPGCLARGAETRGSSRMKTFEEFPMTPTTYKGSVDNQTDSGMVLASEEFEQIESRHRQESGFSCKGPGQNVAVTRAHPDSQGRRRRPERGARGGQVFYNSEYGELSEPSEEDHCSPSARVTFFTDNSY
Method in brief: as §1

MAP3K10 = MAP3K10 (Homo sapiens, UniProt Q02779)
Sequence of MAP3K10 (Q02779 whole entry, species assumed): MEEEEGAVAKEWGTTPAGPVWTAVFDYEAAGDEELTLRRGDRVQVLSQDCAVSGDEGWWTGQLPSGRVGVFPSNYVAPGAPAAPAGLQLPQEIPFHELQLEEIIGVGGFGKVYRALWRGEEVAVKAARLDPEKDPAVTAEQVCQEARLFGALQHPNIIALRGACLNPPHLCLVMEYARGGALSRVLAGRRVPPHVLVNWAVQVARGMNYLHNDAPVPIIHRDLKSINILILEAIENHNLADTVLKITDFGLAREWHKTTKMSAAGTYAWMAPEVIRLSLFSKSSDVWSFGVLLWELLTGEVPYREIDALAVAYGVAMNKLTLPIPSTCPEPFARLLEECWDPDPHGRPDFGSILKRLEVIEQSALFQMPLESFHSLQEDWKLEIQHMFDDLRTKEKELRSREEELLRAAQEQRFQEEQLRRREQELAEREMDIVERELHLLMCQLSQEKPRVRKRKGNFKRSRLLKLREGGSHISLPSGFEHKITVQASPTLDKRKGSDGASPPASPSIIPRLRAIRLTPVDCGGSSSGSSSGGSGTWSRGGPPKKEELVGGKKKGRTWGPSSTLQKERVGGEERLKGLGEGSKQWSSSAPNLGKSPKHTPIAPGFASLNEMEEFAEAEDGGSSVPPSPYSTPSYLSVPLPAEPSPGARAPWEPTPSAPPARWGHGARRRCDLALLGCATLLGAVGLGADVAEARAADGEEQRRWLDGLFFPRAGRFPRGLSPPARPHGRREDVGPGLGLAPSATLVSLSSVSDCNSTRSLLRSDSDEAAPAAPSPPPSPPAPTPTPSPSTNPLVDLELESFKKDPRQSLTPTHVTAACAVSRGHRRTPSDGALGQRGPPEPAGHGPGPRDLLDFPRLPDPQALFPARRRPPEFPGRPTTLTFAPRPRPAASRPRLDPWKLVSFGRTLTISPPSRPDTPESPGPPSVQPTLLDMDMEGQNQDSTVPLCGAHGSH
Method in brief: as §1

NEK9 = target: T4, NEK9 (Homo sapiens, UniProt Q8TD19)
T4 construct: AssayQuant Technologies, Inc. (assay service)
T4 sequence (Q8TD19 1-979): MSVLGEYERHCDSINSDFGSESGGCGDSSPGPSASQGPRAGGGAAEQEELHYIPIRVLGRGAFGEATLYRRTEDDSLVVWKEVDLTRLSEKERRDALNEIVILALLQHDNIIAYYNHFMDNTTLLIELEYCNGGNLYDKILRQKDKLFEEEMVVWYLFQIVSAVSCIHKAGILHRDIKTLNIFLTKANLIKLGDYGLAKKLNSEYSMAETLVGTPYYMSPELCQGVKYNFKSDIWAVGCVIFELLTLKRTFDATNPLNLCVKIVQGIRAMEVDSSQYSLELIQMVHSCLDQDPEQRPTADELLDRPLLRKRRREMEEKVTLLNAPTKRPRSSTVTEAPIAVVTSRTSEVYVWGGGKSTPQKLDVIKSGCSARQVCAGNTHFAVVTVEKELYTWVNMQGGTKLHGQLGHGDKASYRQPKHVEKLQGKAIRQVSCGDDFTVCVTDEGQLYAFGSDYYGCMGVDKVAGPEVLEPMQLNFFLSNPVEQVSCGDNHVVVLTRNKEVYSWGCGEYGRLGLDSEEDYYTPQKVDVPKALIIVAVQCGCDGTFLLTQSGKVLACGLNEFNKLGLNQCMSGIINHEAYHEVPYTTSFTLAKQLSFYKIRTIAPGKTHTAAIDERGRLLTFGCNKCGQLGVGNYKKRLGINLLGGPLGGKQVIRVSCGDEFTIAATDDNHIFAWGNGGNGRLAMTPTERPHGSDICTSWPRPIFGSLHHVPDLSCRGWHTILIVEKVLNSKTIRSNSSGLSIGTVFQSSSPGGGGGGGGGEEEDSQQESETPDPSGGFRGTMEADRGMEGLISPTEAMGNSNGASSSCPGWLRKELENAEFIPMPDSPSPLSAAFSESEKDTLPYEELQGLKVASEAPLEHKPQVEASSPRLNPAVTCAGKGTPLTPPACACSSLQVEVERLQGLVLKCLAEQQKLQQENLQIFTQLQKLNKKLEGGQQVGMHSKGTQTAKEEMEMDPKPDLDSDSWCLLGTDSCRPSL
Method in brief: as §1

PRKAA1/AMPK121 = PRKAA1/AMPK121 (Homo sapiens, UniProt Q13131)
Sequence of PRKAA1/AMPK121 (Q13131 whole entry, species assumed): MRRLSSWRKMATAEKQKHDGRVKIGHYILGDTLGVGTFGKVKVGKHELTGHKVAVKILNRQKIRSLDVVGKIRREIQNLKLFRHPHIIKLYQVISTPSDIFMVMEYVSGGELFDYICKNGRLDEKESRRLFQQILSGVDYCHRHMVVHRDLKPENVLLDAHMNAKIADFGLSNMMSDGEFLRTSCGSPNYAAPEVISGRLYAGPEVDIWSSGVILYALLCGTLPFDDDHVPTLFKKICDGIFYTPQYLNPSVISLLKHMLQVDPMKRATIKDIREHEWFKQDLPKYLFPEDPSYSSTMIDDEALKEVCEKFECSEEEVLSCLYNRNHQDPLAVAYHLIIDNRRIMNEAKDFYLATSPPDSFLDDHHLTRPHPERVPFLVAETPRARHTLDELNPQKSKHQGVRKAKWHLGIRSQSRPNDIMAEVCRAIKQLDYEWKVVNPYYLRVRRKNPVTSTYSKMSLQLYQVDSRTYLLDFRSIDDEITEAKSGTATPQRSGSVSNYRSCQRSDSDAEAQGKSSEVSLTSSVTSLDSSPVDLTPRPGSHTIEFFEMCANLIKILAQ
Sequence of PRKAA1/AMPK121 (O43741 whole entry partner, species assumed): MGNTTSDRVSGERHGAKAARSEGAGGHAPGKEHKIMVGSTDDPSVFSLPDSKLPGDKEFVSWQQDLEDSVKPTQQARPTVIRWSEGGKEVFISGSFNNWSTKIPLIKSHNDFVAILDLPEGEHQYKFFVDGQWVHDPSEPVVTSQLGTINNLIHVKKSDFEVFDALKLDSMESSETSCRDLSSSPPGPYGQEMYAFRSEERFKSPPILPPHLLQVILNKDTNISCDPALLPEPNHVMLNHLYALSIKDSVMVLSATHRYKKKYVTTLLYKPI
Sequence of PRKAA1/AMPK121 (P54619 whole entry partner, species assumed): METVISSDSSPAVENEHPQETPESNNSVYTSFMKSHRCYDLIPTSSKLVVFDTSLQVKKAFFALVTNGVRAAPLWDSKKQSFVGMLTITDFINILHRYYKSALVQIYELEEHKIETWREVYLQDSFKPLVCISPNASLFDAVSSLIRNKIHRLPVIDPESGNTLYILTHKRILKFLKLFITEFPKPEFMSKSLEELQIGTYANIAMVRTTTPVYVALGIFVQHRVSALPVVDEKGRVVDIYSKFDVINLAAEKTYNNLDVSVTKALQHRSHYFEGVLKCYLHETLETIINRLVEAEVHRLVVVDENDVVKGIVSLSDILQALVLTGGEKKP
Method in brief: as §1

BRAF(V599E) = BRAF(V599E) (Homo sapiens, UniProt P15056, V600E)
Sequence of BRAF(V599E) (P15056 whole entry V600E): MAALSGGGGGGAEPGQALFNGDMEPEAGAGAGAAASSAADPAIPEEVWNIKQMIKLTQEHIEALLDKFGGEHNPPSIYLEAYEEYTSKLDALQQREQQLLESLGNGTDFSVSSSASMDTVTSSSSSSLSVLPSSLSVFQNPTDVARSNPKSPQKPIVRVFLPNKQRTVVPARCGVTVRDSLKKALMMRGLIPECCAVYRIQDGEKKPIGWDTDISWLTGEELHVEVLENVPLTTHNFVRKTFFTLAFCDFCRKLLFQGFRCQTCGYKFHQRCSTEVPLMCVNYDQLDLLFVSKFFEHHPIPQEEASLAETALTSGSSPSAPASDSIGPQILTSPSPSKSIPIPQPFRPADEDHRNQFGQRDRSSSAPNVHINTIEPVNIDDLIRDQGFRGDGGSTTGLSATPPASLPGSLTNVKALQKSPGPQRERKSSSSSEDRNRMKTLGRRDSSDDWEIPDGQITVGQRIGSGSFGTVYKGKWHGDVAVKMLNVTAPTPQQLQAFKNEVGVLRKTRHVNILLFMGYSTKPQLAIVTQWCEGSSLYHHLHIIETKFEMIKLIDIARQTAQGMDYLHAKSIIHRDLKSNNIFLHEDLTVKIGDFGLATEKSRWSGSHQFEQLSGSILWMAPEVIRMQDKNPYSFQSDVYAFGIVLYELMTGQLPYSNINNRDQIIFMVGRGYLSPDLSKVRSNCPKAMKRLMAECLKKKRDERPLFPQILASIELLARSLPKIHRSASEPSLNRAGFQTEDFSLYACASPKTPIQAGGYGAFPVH
Method in brief: as §1

## C=CC(=O)N1CCCC(c2c(F)cc(C(N)=O)c3[nH]c4c(c23)CCCCC4)C1 (single isomer, unassigned) [Compound 5-6]
MYLK4
  inhibition at 1 µM: 29.7%
CAMKK1
  inhibition at 1 µM: 22.2%
FLT4
  inhibition at 1 µM: 19.7%
MAP3K10
  inhibition at 1 µM: -8.6%
NEK9
  inhibition at 1 µM: -9.3%
PRKAA1/AMPK121
  inhibition at 1 µM: -7.9%
BRAF(V599E)
  inhibition at 1 µM: -13.2%

## C=CC(=O)N1CCC[C@@H](c2c(F)cc(C(N)=O)c3[nH]c4c(c23)CC2(CC4)CC2)C1 [Compound 6-2, (S)-5-(1-acryloylpiperidin-3-yl)-6-fluoro-1,2,4,9-tetrahydrospiro[carbazole-3,1′-cyclopropane]-8-carboxamide]
MYLK4
  inhibition at 1 µM: -30.5%
CAMKK1
  inhibition at 1 µM: 5.7%
FLT4
  inhibition at 1 µM: 20.4%
MAP3K10
  inhibition at 1 µM: 18.9%
NEK9
  inhibition at 1 µM: 18%
PRKAA1/AMPK121
  inhibition at 1 µM: 31.3%
BRAF(V599E)
  inhibition at 1 µM: -4.9%

## C=CC(=O)N1CCC[C@@H](c2c(F)cc(C(N)=O)c3[nH]c4c(c23)CCC4)C1 [Compound 10-2, (S)-8-(1-acryloylpiperidin-3-yl)-7-fluoro-1,2,3,4-tetrahydrocyclo-penta[b]indole-5-carboxamide]
MYLK4
  inhibition at 1 µM: -21.1%
CAMKK1
  inhibition at 1 µM: 3.7%
FLT4
  inhibition at 1 µM: 1.8%
MAP3K10
  inhibition at 1 µM: -17.7%
NEK9
  inhibition at 1 µM: 2.4%
PRKAA1/AMPK121
  inhibition at 1 µM: 34.2%
BRAF(V599E)
  inhibition at 1 µM: 4.3%
